Experiments:
Assay type in all cases: biochemical
cathepsin S = molecular target: T1, cathepsin S (Homo sapiens, UniProt P25774); assay: Cathepsin S enzyme inhibition in vitro (kinetic fluorescence assay); conditions: recombinant human cathepsin S vs calpain I
T1 construct: purchased Calbiochem 219343; host or cells: E. coli
Outline: (§1)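 cat B 0.25 nM + Z-Phe-Arg-AMC 100 μM; cat L 1 nM + Z-Phe-Arg-AMC 2 μM; cat S 0.5 nM (E. coli-expressed) + Z-Val-Val-Arg-AMC 20 μM. 50 mM MES pH 6.0, 2.5 mM L-Cys, RT. Ex 390/em 460, kinetic; Ki app = Cheng-Prusoff from IC50, mean of 2–4 curves.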

cathepsin L = molecular target: T2, cathepsin L (Homo sapiens, UniProt P07711); assay: Cathepsin L enzyme inhibition in vitro (kinetic fluorescence assay); conditions: cathepsin L isolated from human liver vs calpain I
T2 construct: cathepsin L—isolated from human liver (Calbiochem #219402); purchased Calbiochem 219402; host or cells: human liver (tissue-derived)
T2 sequence (P07711 114-333): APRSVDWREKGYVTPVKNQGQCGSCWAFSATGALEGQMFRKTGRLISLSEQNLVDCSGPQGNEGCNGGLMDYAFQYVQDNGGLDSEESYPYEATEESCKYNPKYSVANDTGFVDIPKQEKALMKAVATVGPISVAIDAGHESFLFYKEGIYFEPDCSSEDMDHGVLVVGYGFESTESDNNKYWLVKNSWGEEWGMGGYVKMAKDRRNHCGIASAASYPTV
Outline: as §1

cathepsin K = molecular target: T3, cathepsin K (Homo sapiens, UniProt P43235); assay: Cathepsin K enzyme inhibition in vitro (kinetic fluorescence assay); conditions: cathepsin K activated from recombinant human procathepsin K vs calpain I
T3 construct: purchased Calbiochem 342001; host or cells: E. coli
T3 sequence (P43235 115-329): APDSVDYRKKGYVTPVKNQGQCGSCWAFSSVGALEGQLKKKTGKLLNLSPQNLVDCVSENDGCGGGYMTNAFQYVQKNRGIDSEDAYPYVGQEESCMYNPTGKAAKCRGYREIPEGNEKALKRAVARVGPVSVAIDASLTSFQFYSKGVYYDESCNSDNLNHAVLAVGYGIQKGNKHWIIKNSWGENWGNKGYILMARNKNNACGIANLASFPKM
Experimental: (§2) The following solutions and buffers were employed: • HBS (for 40 ml): 800 μl M HEPES; 2.16 ml 100 mM KCl; 4.8 ml 1M NaCl; 3.59 ml 5% glucose; 60 μl μM MgSO4; 400 μl 100 mM Na pyruvate, 28.19 ml water; pH 7.2-7.5. • lysis buffer (for 20 ml): 400 μl M Tris pH 8.2; 2.74 ml 1M NaCl; 520 μl 0.5M EDTA; 2 ml 10% triton X-100; 0.8 ml (=1:25) CompletePlus (1 tablet/2 ml H2O); 200 μl 100 mM Pefabloc; 13.34 ml water, pH 8.2. • TBST (10×) (for 1 l): 100 mM Tris (12.1 g); 1.5M NaCl (87 g); 1% Tween 20 (10 g), adjusted to pH 8. I Enzyme Inhibition In Vitro: • Testing for blockade of the corresponding enzymic activities was carried out by means of kinetic fluorescence assays (excitation 390 nm, emission 460 nm). • Apparent Ki values were calculated from the experimentally determined IC50 values by the Cheng-Prussoff relation assuming a reversible competitive enzyme inhibition. The Km values of the substrates used under the assay conditions indicated above were: 90 μM (Z-Phe-Arg-AMC, cathepsin B), 10 μM (Z-Gly-Pro-Arg-AMC, cathepsin K), 2 μM (Z-Phe-Arg-AMC, cathepsin L), and 30 μM (Z-Val-Val-Arg-AMC, cathepsin S). • The indicated Ki values are averages of the inhibition constants calculated on the basis of 2 to 4 independent dose-effect plots.
(§3) The following assays were used: • 1. Calpain I: • 20 nM calpain-I—isolated from human erythrocytes (Calbiochem #208713), 100 μM Suc-Leu-Tyr-AMC (Bachem #1-1355) as substrate in buffer with 62 mM imidazole, 0.3 mM CaCl2, 0.10% CHAPS, 0.05% BSA, 1 mM DTT at pH 7.3 and room temperature. • 2. Cathepsin B: • 0.25 nM cathepsin B—isolated from human liver (Calbiochem #219362), 100 μM Z-Phe-Arg-AMC (Bachem #I-1160) as substrate 50 mM MES, 2 mM EDTA, 0.05% Brij 35, 2.5 mM L-cysteine, pH 6.0, room temperature. • 3. Cathepsin K: • 3 nM cathepsin K—activated from recombinant human procathepsin K from E. coli (Calbiochem #342001), 10 μM Z-Gly-Pro-Arg-AMC (Biomol #P-142) as substrate in 50 mM MES, 2 mM EDTA, 0.05% Brij 35, 2.5 mM L-cysteine, pH 6.0, room temperature. • 4. Cathepsin L: • 1 nM cathepsin L—isolated from human liver (Calbiochem #219402), 2 μM Z-Phe-Arg-AMC (Bachem #1-1160) as substrate in 50 mM MES, 2 mM EDTA, 0.05% Brij 35, 2.5 mM L-cysteine, pH 6.0, room temperature. • 5. Cathepsin S: • 0.5 nM recombinant human cathepsin S from E. coli (Calbiochem #219343), 20 μM Z-Val-Val-Arg-AMC (Bachem #1-1540) as substrate in 50 mM MES, 2 mM EDTA, 0.05% Brij 35, 2.5 mM L-cysteine, pH 6.0, room temperature. • The results of the in vitro determination are indicated in Table 1. The following abbreviations are used in Table 1: • The “Calpain activity” column, ++ stands for a calpain Ki (Ki(calpain)) of ≦40 nM and + means: 40 nM<Ki(Calpain)≦100 nM. • The “Sel. cat. B” column indicates the Ki(cathepsin B)/Ki(calpain) ratio. In this connection, ++ means a Ki(cathepsin B)/Ki(calpain) ratio of ≧30 and + means 10≦Ki(cathepsin B)/Ki(calpain)<30. • The “Sel. cat. K” column indicates the Ki(cathepsin K)/Ki(calpain) ratio. In this connection, ++ means a Ki(cathepsin K)/Ki(calpain) ratio of ≧30 and + means 10≦Ki(cathepsin K)/Ki(calpain)<30. • The “Sel. cat. L” column indicates the Ki(cathepsin L)/Ki(calpain) ratio. In this connection, ++ means a Ki(cathepsin L)/Ki(calpain) ratio of ≧50 and + means 30≦Ki(cathepsin L)/Ki(calpain)<50. • The “Sel. cat. S” column indicates the Ki(cathepsin S)/Ki(calpain) ratio. In this connection, ++ means a Ki(cathepsin S)/Ki(calpain) ratio of ≧100 and + means 50≦Ki(cathepsin S)/Ki(calpain)<100.

cathepsin B = molecular target: T4, cathepsin B (Homo sapiens, UniProt P07858); assay: Cathepsin B enzyme inhibition in vitro (kinetic fluorescence assay); conditions: cathepsin B isolated from human liver vs calpain I
T4 construct: cathepsin B—isolated from human liver (Calbiochem #219362); purchased Calbiochem 219362; host or cells: human liver (tissue-derived)
Experimental: as §2, §3

T1 sequence (P25774 115-331): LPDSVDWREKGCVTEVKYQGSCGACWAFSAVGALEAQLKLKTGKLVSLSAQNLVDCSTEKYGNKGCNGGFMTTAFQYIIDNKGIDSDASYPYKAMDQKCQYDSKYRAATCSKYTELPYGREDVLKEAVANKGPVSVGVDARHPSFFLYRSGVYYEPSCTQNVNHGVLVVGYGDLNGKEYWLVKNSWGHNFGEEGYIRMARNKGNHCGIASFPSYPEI

| SMILES | Sel cat. S: Ki(cathepsin S)/Ki(calpain) ratio (cathepsin S) | Sel cat. L: Ki(cathepsin L)/Ki(calpain) ratio (cathepsin L) | Sel cat. K: Ki(cathepsin K)/Ki(calpain) ratio (cathepsin K) | Sel cat. B: Ki(cathepsin B)/Ki(calpain) ratio (cathepsin B) |
| --- | --- | --- | --- | --- |
| NC(=O)C(=O)C(CC1CCCCC1)NC(=O)c1cccnc1-n1ccc(-c2ccccc2)n1 (stereo not shown) [Example 66, N-[3-Amino-1-(cyclohexylmethyl)-2,3-dioxopropyl]-2-(3-phenyl-1H-pyrazol-1-yl)nicotinamide] | ++ (++ means a Ki(cathepsin S)/Ki(calpain) ratio of ≧100) | + (+ means 30≦Ki(cathepsin L)/Ki(calpain)<50) | + (+ means 10≦Ki(cathepsin K)/Ki(calpain)<30) | – |
| Cl.NC(=O)C(=O)C(Cc1ccccc1)NC(=O)c1cccnc1-n1ccc(-c2ccc(N3CCOCC3)cc2)n1 (stereo not shown) [Example 29, N-(3-Amino-1-benzyl-2,3-dioxopropyl)-2-[3-(4-morpholin-4-ylphenyl)-1H-pyrazol-1-yl]nicotinamide hydrochloride] | ++ (++ means a Ki(cathepsin S)/Ki(calpain) ratio of ≧100) | ++ (++ means a Ki(cathepsin L)/Ki(calpain) ratio of ≧50) | + (+ means 10≦Ki(cathepsin K)/Ki(calpain)<30) | – |
| N#Cc1cnc(-n2ccc(-c3ccccc3F)n2)c(C(=O)NC(Cc2ccccc2)C(=O)C(N)=O)c1 (stereo not shown) [Example 188, N-[3-Amino-2,3-dioxo-1-(phenylmethyl)propyl]-5-cyano-2-[3-(2-fluorophenyl)-1H-pyrazol-1-yl]pyridine-3-carboxamide] | – | ++ (++ means a Ki(cathepsin L)/Ki(calpain) ratio of ≧50) | ++ (++ means a Ki(cathepsin K)/Ki(calpain) ratio of ≧30) | – |
| NC(=O)C(=O)C(Cc1ccccc1)NC(=O)c1cccnc1-n1ccc(-c2cccc3cnccc23)n1 (stereo not shown) [Example 156, N-[3-Amino-2,3-dioxo-1-(phenylmethyl)propyl]-2-(3-isoquinolin-5-yl-1H-pyrazol-1-yl)pyridine-3-carboxamide] | ++ (++ means a Ki(cathepsin S)/Ki(calpain) ratio of ≧100) | + (+ means 30≦Ki(cathepsin L)/Ki(calpain)<50) | – | + (+ means 10≦Ki(cathepsin B)/Ki(calpain)<30) |
| NC(=O)C(=O)C(Cc1ccccc1)NC(=O)c1cc(Cl)cnc1-n1ccc(-c2ccccc2)n1 (stereo not shown) [Example 27, N-(3-Amino-1-benzyl-2,3-dioxopropyl)-5-chloro-2-(3-phenyl-1H-pyrazol-1-yl)nicotinamide] | – | + (+ means 30≦Ki(cathepsin L)/Ki(calpain)<50) | + (+ means 10≦Ki(cathepsin K)/Ki(calpain)<30) | ++ (++ means a Ki(cathepsin B)/Ki(calpain) ratio of ≧30) |
| Cc1cn(-c2ncccc2C(=O)NC(Cc2ccccc2)C(=O)C(N)=O)nc1-c1ccccc1 (stereo not shown) [Example 84, N-(3-Amino-1-benzyl-2,3-dioxopropyl)-2-(4-methyl-3-phenyl-1H-pyrazol-1-yl)nicotinamide] | ++ (++ means a Ki(cathepsin S)/Ki(calpain) ratio of ≧100) | ++ (++ means a Ki(cathepsin L)/Ki(calpain) ratio of ≧50) | – | + (+ means 10≦Ki(cathepsin B)/Ki(calpain)<30) |
| NC(=O)C(=O)C(Cc1ccccc1)NC(=O)c1cccnc1-n1ccc(C2CCCCC2)n1 (stereo not shown) [Example 192, N-[3-Amino-2,3-dioxo-1-(phenylmethyl)propyl]-2-(3-cyclohexyl-1H-pyrazol-1-yl)pyridine-3-carboxamide] | ++ (++ means a Ki(cathepsin S)/Ki(calpain) ratio of ≧100) | ++ (++ means a Ki(cathepsin L)/Ki(calpain) ratio of ≧50) | + (+ means 10≦Ki(cathepsin K)/Ki(calpain)<30) | – |
| CN1CCN(c2ccc(-c3ccn(-c4ncccc4C(=O)NC(Cc4ccccc4)C(=O)C(N)=O)n3)cc2)CC1 (stereo not shown) [Example 68, N-(3-Amino-1-benzyl-2,3-dioxopropyl)-2-{3-[4-(4-methylpiperazin-1-yl)phenyl]-1H-pyrazol-1-yl}nicotinamide] | ++ (++ means a Ki(cathepsin S)/Ki(calpain) ratio of ≧100) | – | + (+ means 10≦Ki(cathepsin K)/Ki(calpain)<30) | – |
| NC(=O)C(=O)C(Cc1ccccc1)NC(=O)c1cc(Cl)cnc1-n1ccc(-c2ccc(N3CCOCC3)cc2)n1 (stereo not shown) [Example 31, N-(3-Amino-1-benzyl-2,3-dioxopropyl)-5-chloro-2-[3-(4-morpholin-4-ylphenyl)-1H-pyrazol-1-yl]nicotinamide] | – | + (+ means 30≦Ki(cathepsin L)/Ki(calpain)<50) | + (+ means 10≦Ki(cathepsin K)/Ki(calpain)<30) | ++ (++ means a Ki(cathepsin B)/Ki(calpain) ratio of ≧30) |
| NC(=O)C(=O)C(Cc1ccccc1)NC(=O)c1cccnc1-n1ccc(-c2ccc3c(c2)CCO3)n1 (stereo not shown) [Example 75, N-(3-Amino-1-benzyl-2,3-dioxopropyl)-2-[3-(2,3-dihydrobenzo[b]furan-5-yl)-1H-pyrazol-1-yl]nicotinamide] | ++ (++ means a Ki(cathepsin S)/Ki(calpain) ratio of ≧100) | ++ (++ means a Ki(cathepsin L)/Ki(calpain) ratio of ≧50) | + (+ means 10≦Ki(cathepsin K)/Ki(calpain)<30) | – |
| NC(=O)C(=O)C(Cc1ccccc1)NC(=O)c1cccnc1-n1ccc(-c2cccc(N3CCCC3)c2)n1 (stereo not shown) [Example 74, N-(3-Amino-1-benzyl-2,3-dioxopropyl)-2-[3-(3-pyrrolidin-1-ylphenyl)-1H-pyrazol-1-yl]nicotinamide] | ++ (++ means a Ki(cathepsin S)/Ki(calpain) ratio of ≧100) | – | ++ (++ means a Ki(cathepsin K)/Ki(calpain) ratio of ≧30) | ++ (++ means a Ki(cathepsin B)/Ki(calpain) ratio of ≧30) |

From patent US7799809B2, “Carboxamide compounds and their use as calpain inhibitors” (Abbott GmbH & Co. KG, priority 2006, dated 2010)
